Reference: the CheMixHub viscosity set
± gives the uncertainty stated by the source.

Experiment: xn = mol fraction of the nth substance listed

C[C@@H]1CC[C@@H]2C[C@H]1C2(C)C + C[C@H]1CC[C@@H]2C[C@H]1C2(C)C
100 kPa, x2 = 0.9048
Settings	viscosity [mPa·s]
293.15 K	2.24 ± 0.13
298.15 K	2.023 ± 0.13
303.15 K	1.838 ± 0.13
308.15 K	1.679 ± 0.13
313.15 K	1.538 ± 0.13
318.15 K	1.415 ± 0.13
323.15 K	1.308 ± 0.13

CCCBr + Cc1cc(C)cc(C)c1
308.15 K, 101 kPa
Settings	viscosity [mPa·s]
x2 = 0.0819	0.4452 ± 0.0039
x2 = 0.1828	0.4586 ± 0.004
x2 = 0.298	0.4744 ± 0.0041
x2 = 0.4146	0.4872 ± 0.0042
x2 = 0.5062	0.4995 ± 0.0043
x2 = 0.5971	0.5145 ± 0.0044
x2 = 0.7035	0.5257 ± 0.0045
x2 = 0.8027	0.541 ± 0.0046
x2 = 0.8945	0.5538 ± 0.0047

CCCBr + Cc1ccc(C)cc1
308.15 K, 101 kPa
Settings	viscosity [mPa·s]
x2 = 0.1032	0.4446 ± 0.0039
x2 = 0.2012	0.4528 ± 0.0039
x2 = 0.3051	0.4596 ± 0.004
x2 = 0.4051	0.469 ± 0.0041
x2 = 0.503	0.477 ± 0.0041
x2 = 0.6038	0.4865 ± 0.0042
x2 = 0.7055	0.4971 ± 0.0043
x2 = 0.8019	0.5027 ± 0.0043
x2 = 0.8965	0.5124 ± 0.0044

Nc1ccccc1 + Cc1cccc(C)c1
303 K, 101.33 kPa
Settings	viscosity [mPa·s]
x1 = 0.1	0.815 ± 0.084
x1 = 0.2	1.025 ± 0.11
x1 = 0.3	1.316 ± 0.14
x1 = 0.4	1.708 ± 0.18
x1 = 0.5	2.076 ± 0.22
x1 = 0.6	2.225 ± 0.23
x1 = 0.7	2.432 ± 0.25
x1 = 0.8	2.675 ± 0.28
x1 = 0.9	2.875 ± 0.3

CC(C)(C)O + Cc1ccccc1
viscosity [mPa·s]
Settings	298.15 K	303.15 K	308.15 K	313.15 K	318.15 K
101 kPa, x2 = 0.1121	2.432 ± 0.085	1.991 ± 0.07	1.63 ± 0.058	1.282 ± 0.047	1.05 ± 0.039
101 kPa, x2 = 0.1785	1.717 ± 0.061	1.462 ± 0.053	1.245 ± 0.045	1.027 ± 0.038	0.8744 ± 0.033
101 kPa, x2 = 0.3151	1.113 ± 0.041	0.9909 ± 0.037	0.8824 ± 0.034	0.7677 ± 0.03	0.6837 ± 0.027
101 kPa, x2 = 0.3919	0.9507 ± 0.036	0.8583 ± 0.033	0.7749 ± 0.03	0.6855 ± 0.027	0.6188 ± 0.025
101 kPa, x2 = 0.4958	0.7975 ± 0.031	0.7306 ± 0.029	0.6693 ± 0.027	0.6025 ± 0.024	0.552 ± 0.023
101.33 kPa, x2 = 0.1003	–	1.981 ± 0.031	1.622 ± 0.026	1.328 ± 0.021	–
101.33 kPa, x2 = 0.1723	–	1.455 ± 0.023	1.239 ± 0.02	1.059 ± 0.017	–
101.33 kPa, x2 = 0.3109	–	0.986 ± 0.016	0.878 ± 0.015	0.781 ± 0.013	–
101.33 kPa, x2 = 0.3886	–	0.854 ± 0.014	0.771 ± 0.013	0.696 ± 0.012	–
101.33 kPa, x2 = 0.4942	–	0.727 ± 0.013	0.666 ± 0.012	0.611 ± 0.011	–
101.33 kPa, x2 = 0.6059	–	0.644 ± 0.011	0.594 ± 0.011	0.548 ± 0.01	–
101.33 kPa, x2 = 0.7118	–	0.588 ± 0.011	0.547 ± 0.01	0.51 ± 0.007	–
101.33 kPa, x2 = 0.8135	–	0.549 ± 0.01	0.518 ± 0.01	0.486 ± 0.007	–
101.33 kPa, x2 = 0.9107	–	0.521 ± 0.01	0.49 ± 0.007	0.46 ± 0.007	–

CCCC[n+]1ccn(C)c1.[Cl][Al-]([Cl])([Cl])[Cl] + Cc1ccccc1
101 kPa, x2 = 0.37
Settings	viscosity [mPa·s]
293.15 K	18.2 ± 0.8
298.15 K	16.6 ± 0.7
303.15 K	14.6 ± 0.6
308.15 K	13.1 ± 0.6
313.15 K	11.6 ± 0.5
318.15 K	10.5 ± 0.5
323.15 K	9.6 ± 0.4

Nc1ccccc1 + Cc1ccccc1
viscosity [mPa·s], 101 kPa
Settings	298.15 K	303.15 K	308.15 K	313.15 K
x1 = 0.0977	0.62 ± 0.011	0.576 ± 0.01	0.545 ± 0.01	0.495 ± 0.009
x1 = 0.1155	–	–	0.5602 ± 0.023	–
x1 = 0.116	0.5955 ± 0.0056	–	–	–
x1 = 0.198	0.701 ± 0.012	0.653 ± 0.012	0.615 ± 0.011	0.57 ± 0.01
x1 = 0.2272	0.681 ± 0.0063	–	–	–
x1 = 0.2298	–	–	0.7052 ± 0.029	–
x1 = 0.3004	0.814 ± 0.014	0.752 ± 0.013	0.72 ± 0.013	0.65 ± 0.012
x1 = 0.3224	–	–	0.7335 ± 0.03	–
x1 = 0.3354	0.8149 ± 0.0074	–	–	–
x1 = 0.3917	0.94 ± 0.016	0.867 ± 0.015	0.803 ± 0.014	0.74 ± 0.013
x1 = 0.4199	–	–	0.8736 ± 0.036	–
x1 = 0.4399	0.9747 ± 0.0088	–	–	–
x1 = 0.4993	1.146 ± 0.019	1.074 ± 0.018	0.954 ± 0.016	0.872 ± 0.015
x1 = 0.5404	1.169 ± 0.01	–	–	–
x1 = 0.5446	–	–	1.039 ± 0.042	–
x1 = 0.6003	1.406 ± 0.023	1.253 ± 0.02	1.139 ± 0.019	1.03 ± 0.017
x1 = 0.6191	–	–	1.19 ± 0.049	–
x1 = 0.6382	1.427 ± 0.013	–	–	–
x1 = 0.69	–	–	1.391 ± 0.057	–
x1 = 0.6978	1.723 ± 0.027	1.522 ± 0.024	1.367 ± 0.022	1.216 ± 0.02
x1 = 0.7815	–	–	1.647 ± 0.067	–
x1 = 0.8009	2.199 ± 0.034	1.907 ± 0.03	1.696 ± 0.027	1.486 ± 0.024
x1 = 0.835	–	–	1.891 ± 0.077	–
x1 = 0.8998	2.822 ± 0.043	2.423 ± 0.038	2.122 ± 0.033	1.863 ± 0.029

CCCBr + ClC(Cl)(Cl)Cl
viscosity [mPa·s], 101 kPa
Settings	293.15 K	303.15 K	313.15 K	323.15 K
x1 = 0.143	0.855 ± 0.018	0.76 ± 0.016	0.678 ± 0.015	0.61 ± 0.013
x1 = 0.294	0.775 ± 0.017	0.691 ± 0.015	0.621 ± 0.013	0.562 ± 0.012
x1 = 0.445	0.7 ± 0.015	0.625 ± 0.014	0.565 ± 0.012	0.512 ± 0.011
x1 = 0.625	0.637 ± 0.014	0.581 ± 0.013	0.52 ± 0.011	0.472 ± 0.01

COCCOCCOCCOC + ClC(Cl)(Cl)Cl
298.15 K, 101 kPa
Settings	viscosity [mPa·s]
x1 = 0.0041	0.912 ± 0.013
x1 = 0.0202	0.952 ± 0.013
x1 = 0.0485	1 ± 0.014
x1 = 0.0921	1.08 ± 0.015
x1 = 0.1704	1.198 ± 0.016
x1 = 0.2242	1.288 ± 0.017
x1 = 0.2579	1.333 ± 0.017
x1 = 0.2736	1.364 ± 0.018
x1 = 0.3237	1.437 ± 0.018
x1 = 0.3887	1.52 ± 0.019
x1 = 0.4494	1.59 ± 0.02
x1 = 0.5	1.646 ± 0.021
x1 = 0.5522	1.696 ± 0.022
x1 = 0.6149	1.75 ± 0.022
x1 = 0.6542	1.79 ± 0.023
x1 = 0.7187	1.826 ± 0.023
x1 = 0.7623	1.846 ± 0.023
x1 = 0.8533	1.891 ± 0.024
x1 = 0.8992	1.913 ± 0.024
x1 = 0.9312	1.929 ± 0.024

COCCOCCOCCO + ClC(Cl)=C(Cl)Cl
298.15 K, 101.33 kPa
Settings	viscosity [mPa·s]
x1 = 0.0078	0.862 ± 0.009
x1 = 0.016	0.883 ± 0.009
x1 = 0.0295	0.915 ± 0.009
x1 = 0.047	0.956 ± 0.009
x1 = 0.0598	0.989 ± 0.01
x1 = 0.0696	1.016 ± 0.01
x1 = 0.0802	1.046 ± 0.01
x1 = 0.0924	1.081 ± 0.011
x1 = 0.1201	1.162 ± 0.011
x1 = 0.1568	1.28 ± 0.013
x1 = 0.2009	1.432 ± 0.014
x1 = 0.2413	1.592 ± 0.016
x1 = 0.2894	1.795 ± 0.018
x1 = 0.3457	2.047 ± 0.02
x1 = 0.3797	2.209 ± 0.022
x1 = 0.4041	2.334 ± 0.023
x1 = 0.462	2.64 ± 0.027
x1 = 0.4933	2.812 ± 0.028
x1 = 0.5379	3.072 ± 0.031
x1 = 0.5783	3.326 ± 0.034
x1 = 0.6154	3.56 ± 0.037
x1 = 0.6587	3.856 ± 0.04
x1 = 0.7026	4.163 ± 0.044
x1 = 0.7393	4.431 ± 0.047
x1 = 0.787	4.797 ± 0.051
x1 = 0.8264	5.117 ± 0.055
x1 = 0.886	5.597 ± 0.061
x1 = 0.9108	5.82 ± 0.064
x1 = 0.9403	6.053 ± 0.067
x1 = 0.9649	6.276 ± 0.069
x2 = 0.0193	6.411 ± 0.071
